Test results from paper PMC10687071 (The Journal of Biological Chemistry, 2023).
Numbering of substitutions follows the chain as printed.

Columns and labels:
[1] = target: T1, WT EAG1 channels (Mus musculus, UniProt Q60603); experiment: TEVC recording of EAG1 currents in Xenopus oocytes, imipramine inhibition, WT channel; assay type: cell-based; conditions: IC50 for imipramine inhibition at +50 mV
T1 construct: expressed in transfected cells; host or cells: Xenopus laevis oocytes injected with cRNA
T1 sequence (Q60603 1-989): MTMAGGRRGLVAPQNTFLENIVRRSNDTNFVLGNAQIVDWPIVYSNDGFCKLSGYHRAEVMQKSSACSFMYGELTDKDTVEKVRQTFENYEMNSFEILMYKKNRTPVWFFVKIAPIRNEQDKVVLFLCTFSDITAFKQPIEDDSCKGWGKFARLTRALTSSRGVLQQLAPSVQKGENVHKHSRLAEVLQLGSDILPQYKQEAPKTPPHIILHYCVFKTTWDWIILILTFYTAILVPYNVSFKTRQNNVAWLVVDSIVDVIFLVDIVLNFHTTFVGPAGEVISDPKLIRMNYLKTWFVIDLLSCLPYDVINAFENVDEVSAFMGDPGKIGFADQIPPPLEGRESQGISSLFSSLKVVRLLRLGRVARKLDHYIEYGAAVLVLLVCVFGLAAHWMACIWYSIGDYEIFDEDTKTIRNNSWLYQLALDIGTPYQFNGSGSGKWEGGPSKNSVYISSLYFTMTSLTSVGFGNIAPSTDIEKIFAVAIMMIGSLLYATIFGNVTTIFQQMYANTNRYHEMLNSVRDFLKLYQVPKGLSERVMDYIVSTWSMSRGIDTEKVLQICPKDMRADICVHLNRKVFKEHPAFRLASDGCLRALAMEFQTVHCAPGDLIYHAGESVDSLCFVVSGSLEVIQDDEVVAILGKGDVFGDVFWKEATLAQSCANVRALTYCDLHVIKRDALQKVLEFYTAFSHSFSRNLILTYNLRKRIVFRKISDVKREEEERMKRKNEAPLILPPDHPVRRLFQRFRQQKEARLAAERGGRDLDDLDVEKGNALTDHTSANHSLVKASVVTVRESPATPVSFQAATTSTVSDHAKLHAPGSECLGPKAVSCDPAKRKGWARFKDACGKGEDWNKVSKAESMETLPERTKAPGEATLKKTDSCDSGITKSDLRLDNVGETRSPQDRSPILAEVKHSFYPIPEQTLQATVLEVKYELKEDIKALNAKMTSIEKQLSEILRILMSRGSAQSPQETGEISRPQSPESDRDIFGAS
Source text: (§1) The cDNA encoding wild-type (WT) mouse EAG1 channels in pGH19 vector was kindly provided by G. Robertson (University of Wisconsin-Madison, Madison, WI). The mutant ΔPAS EAG1 channel in pGH19 with the deletion of the PAS domain residues 2 to 130 was generated by Bio Basic Inc and verified by DNA sequencing (Genewiz). Mutant EAG1 channels with single amino acid substitutions were generated by Genewiz and verified by DNA sequencing. cRNA was transcribed using the T7 mMessage mMachine kit (Thermo Fisher Scientific). Defolliculated Xenopus laevis oocytes were purchased from Ecocyte Bioscience or Xenopus1 and injected with the cRNA using a Nanoinject II oocyte injector (Drummond).
(§2) For EAG1 current recordings, oocytes were placed into a handmade chamber containing a bath solution for the current recording. The currents were recorded using a TEVC technique with OC-725C amplifier (Warner Instruments) and pClamp11 software (Molecular Devices). The signals were digitized using Digidata 1550 (Molecular Devices). Patch pipettes were pulled from borosilicate glass and had resistances of 0.7 to 1.5 MΩ. The recording (bath) solution contained 96 mM NaCl, 4 mM KCl, 0.1 mM CaCl2, 1.8 mM MgCl2, and 5 mM HEPES, pH 7.5. The pipette solution contained 3 M KCl. […]

[2] = target: T2, Y71V mutant EAG1 channels (Mus musculus, UniProt Q60603, Y71V); experiment: TEVC recording, imipramine inhibition, Y71V mutant; assay type: cell-based; conditions: Y71V mutant EAG1 channel, +50 mV
T2 construct: expressed in transfected cells; host or cells: Xenopus laevis oocytes injected with cRNA
T2 sequence (Q60603 1-989 Y71V): T1 sequence (Q60603 1-989) with Y71V
Source text: as §1, §2

IC50 [1]: 58.1 ± 9.7 µM | IC50 [2]: 31.3 ± 1.8 µM
Structure (SMILES): CN(C)CCCN1c2ccccc2CCc2ccccc21 [imipramine]
